pIC50: −log10 of the molar value. Values joined by “and” are separate entries in the source; they are usually repeats but may differ in a detail not shown here. Equal entries are not always repeated. Where two headings read alike, the source gives them in different places. Where a SMILES comes first, the peptide text is derived from it.
Columns and labels:
[1] = target: T1, retroviral protease (HIV-1) (Human immunodeficiency virus type 1 group M subtype B, UniProt P04585); assay: fluorometric assay for HIV protease (Toth and Marshall); assay type: biochemical; settings: for pIC50: where isomers were resolved, activities of both isomers are shown; for inhibition at 10 µM: read-out: percent at 10 μM, at 10 μM
T1 construct: the retroviral protease, is contained within the polyprotein
Procedure: These peptide analogs were assayed in solution for their ability to inhibit retroviral protease (HIV-1) by a fluorometric assay for HIV protease as described by Toth and Marshall, Int. J. Peptide Protein Res. 36, 546-550 (1990), and in U.S. Pat. No. 5,011,910.
Table 2, below, sets forth the median inhibitory concentration, IC50, (μM) for the compounds thus tested. In those cases where the isomers were resolved, the activities of both isomers are shown.

HIV protease [2] = target: T2, HIV protease (Human immunodeficiency virus type 1 group M subtype B, UniProt P04585); assay type: biochemical; design: made in house; host or cells: chemical synthesis (gift of Dr. Stephen Kent, Caltech) or E. coli (gift of Dr. George Glover, Monsanto); settings: for Relative Rate: relative cleavage rate: percent of standard substrate concentration cleaved in twenty minutes, control Ac-Thr-Ile-Met-Met-Gln-Arg-NH2 = 1.00
Procedure: HIV protease assay. The HIV protease assay was conducted using either synthetic HIV protease [Schneider and Kent, Cell 54, 363 (1988)] kindly supplied by Dr. Stephen Kent of Caltech, or cloned material expressed in E. coli supplied by Dr. George Glover of the Monsanto Company. […] Synthetic protease (1 mg/ml) was dissolved in a buffer (20 mM PIPES, 0.5% NP-40 detergent, 1 mM dithiothreitol), pH 6.5 . Substrates were also dissolved in the same buffer at 1 mg/ml concentration. 5 μl 1 of substrate and 5 μl of HIV protease were added to an Eppendorf tube which was centrifuged for one minute and incubated at 25° for the desired time. The reaction was stopped by the addition of 50 μl of 50% TFA. The sample was diluted with 200 μl of water and applied to a C4 HPLC column developed with 0.1% TFA for 5 min followed by a gradient of 0-50% acetonitrile in 50 min. For inhibitor studies, 5 μl of the protease solution was preincubated for 10 min with the 5 μl of inhibitor (dissolved in 10% DMSO and diluted to 1 mg/ml with buffer). Then 5 μl of test substrate, acetyl-Thr-Ile-Met-Met-Gln-Arg-NH2 was added in order to determine inhibition of cleavage. Reactions were stopped as above and cleavage rates were monitored by HPLC as above.
Substrate analogs were prepared in order to examine the relative hydrolysis rates of the various sites. […] Relative cleavage rates were measured by comparing the percent of a standard substrate concentration cleaved by the same concentration of enzyme in twenty minutes (linear portion of curve).

HIV protease [3] = target: T2, HIV protease; settings: cited from earlier work

## CCCC[C@H](NC(=O)[C@@H](NC(=O)[C@@H](NC(=O)c1ccccc1N)[C@@H](C)O)[C@@H](C)CC)C(=O)CC(Cc1ccc2ccccc2c1)C(=O)N[C@@H](CCC(N)=O)C(=O)N[C@@H](CCCNC(=N)N)C(N)=O (stereo partly drawn) [Abz-Thr-Ile-Nle-.PSI.(K)2-Nal-Gln-Arg-NH2] (HELM PEPTIDE1{[Nc1ccccc1C(=O)[*:2]].T.I.[CCCC[C@H](N[*:1])C(=O)CC(Cc1ccc2ccccc2c1)C(=O)[*:2]].Q.R.[am]}$$$$V2.0)
[1]
  pIC50: 8.32

## CC[C@H](C)[C@H](NC(=O)[C@@H](NC(=O)c1ccccc1N)[C@@H](C)O)C(=O)N[C@@H](Cc1ccccc1)C(=O)CC(C)C(=O)N[C@@H](CCC(N)=O)C(=O)N[C@@H](CCCNC(=N)N)C(N)=O (stereo partly drawn) [Abz-Thr-Ile-Phe.PSI.(K)Ala-Gln-Arg-NH2] (HELM PEPTIDE1{[Nc1ccccc1C(=O)[*:2]].T.I.[CC(CC(=O)[C@H](Cc1ccccc1)N[*:1])C(=O)[*:2]].Q.R.[am]}$$$$V2.0)
[1]
  pIC50: 7.48

## CCCC[C@H](NC(=O)c1ccc2ccccc2n1)C(=O)CC(Cc1ccc2ccccc2c1)C(=O)N[C@@H](CCC(N)=O)C(=O)N[C@@H](CCCNC(=N)N)C(N)=O (stereo partly drawn) [Qua--Nle.psi.(K)2-Nal--Gln--Arg--NH2, Qua-Nle.PSI.(K)2-Nal-Gln-Arg-NH2]
[1]
  inhibition at 10 µM: 96%

## CCCC[C@H](NC(=O)[C@@H](NC(=O)c1ccc2ccccc2n1)[C@@H](C)CC)C(=O)CC(Cc1ccc2ccccc2c1)C(=O)N[C@@H](CCC(N)=O)C(=O)N[C@@H](CCCNC(=N)N)C(N)=O (stereo partly drawn) [Qua-Ile-Nle.PSI.(K)2-Nal-Gln-Arg-NH2]
[1]
  pIC50: 8.07

## CCCC[C@H](NC(=O)[C@@H](NC(=O)c1cnc2ccccc2n1)[C@@H](C)CC)C(=O)CC(Cc1ccc2ccccc2c1)C(=O)N[C@@H](CCC(N)=O)C(N)=O (stereo partly drawn) [Qui--Ile--Nle.psi.(K)2-Nal--Gln--NH2, Qui-Ile-Nle.PSI.(K)2-Nal-Gln-NH2]
[1]
  inhibition at 10 µM: 54%

## CCCC[C@H](NC(=O)c1cnc2ccccc2n1)C(=O)CC(Cc1ccc2ccccc2c1)C(=O)N[C@@H](CCC(N)=O)C(N)=O (stereo partly drawn) [Qui--Nle.psi.(K)2-Nal--Gln--NH2, Qui-Nle.PSI.(K)2-Nal-Gln-NH2]
[1]
  inhibition at 10 µM: 7%

## CCCC[C@H](NC(=O)[C@@H](NC(=O)[C@@H](NC(=O)c1cnc2ccccc2n1)[C@@H](C)O)[C@@H](C)CC)C(=O)CC(Cc1ccc2ccccc2c1)C(=O)N[C@@H](CCC(N)=O)C(N)=O (stereo partly drawn) [Qui-Thr-Ile-Nle.PSI.(K)2-Nal-Gln-NH2]
[1]
  pIC50: 5.95 and 5.09

## Aba--Thr--Ile--Nle--PnF--Gln--Arg--NH2
HIV protease [2]
  Relative Rate: 1.46

## Ac--Thr--Ile--Nle--Hle--Gln--Arg--NH2
HIV protease [2]
  Relative Rate: 0.95

## Ac-QNYPIV-NH2 [Ac--Gln--Asn--Tyr--Pro--Ile--Val--NH2]
HIV protease [2]
  Relative Rate: 0.04

## Ac-TIMMQR-NH2 [Ac--Thr--Ile--Met--Met--Gln--Arg--NH2, Ac-Thr-Ile-Met-Met-Gln-Arg-NH2]
HIV protease [2]; as substrate of HIV protease
  Km: 1400 µM
  Vmax: 725 nmol/min/mg
HIV protease [2]
  Relative Rate: 1.00

## SQNY-PI
HIV protease [3]
  cleavage by HIV protease: failed to be cleaved

## SQNY-PIV
HIV protease [3]; relative to VSQNYPIV
  rate of cleavage relative to the octapeptide: 90%

## VSQNYPIV
HIV protease [3]; gag p17/gag p24 cleavage site substrate
  Km: 2500 µM

## acetyl-QNY-PIV
HIV protease [3]
  cleavage by HIV protease: failed to be cleaved
